For assay [1], the system named is NF-kB pathway (TNF-α secretion by THP-1 cells). Nature of the assay: TNF-α secretion assay in LPS-stimulated THP-1 cells, Lumit immunoassay. Format: cell-based, human. To be noted: Homo sapiens, THP-1, 3 h, monocytic THP-1 cells, LPS 10 ng/mL, relative IC50, 10 concentrations, geometric mean. In a few lines:
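TNF-α release was quantified directly in the cell plate by Lumit immunoassay after a 3-h, 10 ng/mL LPS trigger of compound-treated THP-1 cells (RPMI, 5% FBS). Percent inhibition versus no-compound and unstimulated controls fed a 4-parameter logistic fit over 10 concentrations, giving geometric-mean relative IC50.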

Assay [2] concerns the target T1, NLRP3 inflammasome (Homo sapiens, UniProt Q96P20).
T1 construct: endogenous in cells; host or cells: THP-1 monocytic cells
In words: IL-1β secretion assay (NLRP3 IC50) in LPS-primed, nigericin-activated THP-1 cells, HTRF. Format: cell-based. The following applies: monocytic THP-1 cells; LPS 10 ng/mL 3 h priming, then compound + nigericin 10 μM 2 h; relative IC50, 10 concentrations, geometric mean. The essentials: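 IL-1β in supernatant read by HTRF after 2 h co-incubation of compound (0.1% DMSO, 10 concentrations, 1:3 series) with nigericin at 10 μM final, following 3 h LPS (10 ng/mL) priming of THP-1 monocytes at 37° C. Inhibition normalised to unactivated and no-compound controls; geometric-mean relative IC50 from 4-parameter logistic model.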

T1 sequence (Q96P20 whole entry): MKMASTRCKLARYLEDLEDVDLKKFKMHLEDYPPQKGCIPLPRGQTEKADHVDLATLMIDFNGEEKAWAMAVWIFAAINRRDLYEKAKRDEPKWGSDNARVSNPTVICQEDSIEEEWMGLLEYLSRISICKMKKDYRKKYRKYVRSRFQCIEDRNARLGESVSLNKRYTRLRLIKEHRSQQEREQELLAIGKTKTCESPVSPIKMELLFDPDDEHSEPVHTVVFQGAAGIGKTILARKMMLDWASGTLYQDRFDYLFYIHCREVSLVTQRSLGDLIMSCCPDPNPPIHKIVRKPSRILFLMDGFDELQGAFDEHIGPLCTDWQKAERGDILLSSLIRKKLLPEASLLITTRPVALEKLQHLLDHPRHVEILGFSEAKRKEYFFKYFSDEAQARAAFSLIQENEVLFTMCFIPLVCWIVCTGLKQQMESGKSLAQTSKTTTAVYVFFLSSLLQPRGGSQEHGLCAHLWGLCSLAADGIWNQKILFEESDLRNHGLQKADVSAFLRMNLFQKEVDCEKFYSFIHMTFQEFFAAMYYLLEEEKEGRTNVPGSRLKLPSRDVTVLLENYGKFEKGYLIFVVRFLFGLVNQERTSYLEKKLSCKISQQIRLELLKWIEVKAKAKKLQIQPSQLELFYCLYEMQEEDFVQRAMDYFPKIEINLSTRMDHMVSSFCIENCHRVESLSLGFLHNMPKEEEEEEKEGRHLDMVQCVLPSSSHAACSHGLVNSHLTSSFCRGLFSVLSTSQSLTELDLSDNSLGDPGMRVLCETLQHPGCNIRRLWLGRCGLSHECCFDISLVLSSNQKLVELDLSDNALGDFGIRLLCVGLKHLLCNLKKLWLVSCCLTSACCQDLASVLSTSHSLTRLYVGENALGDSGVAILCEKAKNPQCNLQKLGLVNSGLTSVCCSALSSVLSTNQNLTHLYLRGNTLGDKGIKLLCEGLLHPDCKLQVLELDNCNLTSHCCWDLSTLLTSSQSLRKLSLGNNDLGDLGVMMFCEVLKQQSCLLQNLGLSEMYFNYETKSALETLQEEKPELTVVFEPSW

As to `Cc1cc(N2CC[C@@H]3CCN(C)C[C@@H]32)nnc1-c1ccc(C(F)(F)F)cc1O` (single isomer, unassigned) [Example 366], the figures for the IC50 in assay [1] and in assay [2] were > 10000 nM and 25 nM, respectively.
`CCN1CC[C@@H]2OCCN(c3ccc(-c4c(C)cc(C(F)(F)F)cc4O)nn3)[C@@H]2C1` (racemic) [Example 210, 2-[6-[rac-(4aR,8aS)-6-ethyl-3,4a,5,7,8,8a-hexahydro-2H-pyrido[4,3-b][1,4]oxazin-4-yl]pyridazin-3-yl]-3-methyl-5-(trifluoromethyl)phenol]: the IC50 in assay [1] was > 10000 nM; in assay [2], 1 nM.
For the compound `Cc1cc(N2CCO[C@@H]3CCN(C)C[C@@H]32)nnc1-c1ccc(Cl)cc1O` [Example 379, 2-[6-[(4aS,8aR)-6-methyl-3,4a,5,7,8,8a-hexahydro-2H-pyrido[4,3-b][1,4]oxazin-4-yl]-4-methyl-pyridazin-3-yl]-5-chloro-phenol], the IC50 in assay [1] is > 10000 nM; in assay [2], 1 nM.
Regarding `Cc1cc(C(F)(F)F)cc(O)c1-c1ccc(N2CC(CO)C2)nn1` [Example 30, 2-[6-[3-(hydroxymethyl)azetidin-1-yl]pyridazin-3-yl]-3-methyl-5-(trifluoromethyl)phenol], the IC50 in assay [1] is > 10000 nM; in assay [2], 431 nM.
For the compound `Cc1ccc(-c2nnc(N3CCO[C@@H]4CCN(C)C[C@@H]43)cc2C)c(O)c1` [Example 373, 2-[6-[(4aS,8aR)-6-methyl-3,4a,5,7,8,8a-hexahydro-2H-pyrido[4,3-b][1,4]oxazin-4-yl]-4-methyl-pyridazin-3-yl]-5-methyl-phenol], the IC50 in assay [1] was > 10000 nM; in assay [2], 1.1 nM.
Regarding `Cc1cc(C(F)(F)F)cc(O)c1-c1nnc(N2C[C@@H](O)CC2=O)cc1C(F)F` [Example 372, (4S)-1-[5-(difluoromethyl)-6-[2-hydroxy-6-methyl-4-(trifluoromethyl)phenyl]pyridazin-3-yl]-4-hydroxy-pyrrolidin-2-one], the results for the IC50 in assay [1] and in assay [2] were > 10000 nM and 94 nM, respectively.
`CCN1C[C@@H]2CCN(c3ccc(-c4c(C)cc(C(F)(F)F)cc4O)nn3)[C@@H]2C1` (racemic) [Example 243, 2-[6-[rac-(3aS,6aS)-5-ethyl-2,3,3a,4,6,6a-hexahydropyrrolo[3,4-b]pyrrol-1-yl]pyridazin-3-yl]-3-methyl-5-(trifluoromethyl)phenol]: the IC50 in assay [1] is > 10000 nM; in assay [2] it was 21 nM.
With `Cc1cc(Cl)cc(O)c1-c1ccc(N2CCO[C@H]3CCNC[C@H]32)nn1` (racemic) [Example 221, 2-[6-[rac-(4aR,8aS)-2,3,4a,5,6,7,8,8a-octahydropyrido[4,3-b][1,4]oxazin-4-yl]pyridazin-3-yl]-5-chloro-3-methyl-phenol], the IC50 was > 10000 nM in assay [1] and 18 nM in assay [2].
For `Cc1cc(C(F)(F)F)cc(O)c1-c1ccc(N2CCC(CO)CC2=O)nn1` (single isomer, unassigned) [Example 293], in that order: > 10000 nM and 84 nM.
The matching figures for `CC(=O)N1CC[C@@H]2OCCN(c3ccc(-c4c(C)cc(C(F)(F)F)cc4O)nn3)[C@@H]2C1` (stereo in doubt) [Example 398, 1-[(4aR,8aS)-4-[6-[2-hydroxy-6-methyl-4-(trifluoromethyl)phenyl]pyridazin-3-yl]-3,4a,5,7,8,8a-hexahydro-2H-pyrido[4,3-b][1,4]oxazin-6-yl]ethanone]: > 10000 nM and 17 nM.
Turning to `[O-][S+]1CCN(c2ccc(-c3c(O)cc(Cl)cc3Cl)nn2)CC1` [Example 400, 3,5-dichloro-2-[6-(1-oxo-1,4-thiazinan-4-yl)pyridazin-3-yl]phenol], the IC50 in assay [1] is > 10000 nM; in assay [2], 93 nM.
As for `Cc1cc(C)c(-c2ccc(N3CCOC(CF)C3)nn2)c(O)c1` (stereo not drawn) [Example 174, 2-[6-[2-(fluoromethyl)morpholin-4-yl]pyridazin-3-yl]-3,5-dimethyl-phenol], the results for the IC50 in assay [1] and in assay [2] were > 10000 nM and 170 nM, respectively.
